Reference: ChEMBL document CHEMBL3046422, “Insecticidal activity of imidacloprid derivatives with an alkoxy group at the C5 position of the pyridine ring” (2006)

Tests used:
Assay type in all cases: functional
Periplaneta americana [1] = test: Insecticidal activity against adult male Periplaneta americana (American cockroach) dosed through injection into abdomen assessed as mortality measured 24 hr post dose pre-treated with 50 ug metabolic inhibitor PB and 50 ug NIA16388 1 hr before compound injection
Periplaneta americana [2] = test: Insecticidal activity against adult male Periplaneta americana (American cockroach) dosed through injection into abdomen assessed as mortality measured 24 hr post dose
Periplaneta americana [3] = test: Insecticidal activity against adult male Periplaneta americana (American cockroach) dosed through injection into abdomen assessed as mortality measured 24 hr post dose pre-treated with 50 ug metabolic inhibitor PB 1 hr before compound injection

Compound	log(1/MLD) (Periplaneta americana [1])	log(1/MLD) (Periplaneta americana [2])	log(1/MLD) (Periplaneta americana [3])
O=[N+]([O-])/N=C1\NCCN1Cc1cnc(Cl)c(Cl)c1 [5-CHLOROIMIDACLOPRID]	9.05	8.35	9.05
CCCCCOc1cc(CN2CCN/C2=N\[N+](=O)[O-])cnc1Cl	6.46	5.86	6.46
COc1cc(CN2CCN/C2=N\[N+](=O)[O-])cnc1Cl	8.74	7.43	8.74
CCOc1cc(CN2CCN/C2=N\[N+](=O)[O-])cnc1Cl	8.08	7.07	7.87
O=[N+]([O-])/N=C1\NCCN1Cc1ccc(Cl)nc1 [IMIDACLOPRID]	10.15	8.96	10.15
CC(C)Oc1cc(CN2CCN/C2=N\[N+](=O)[O-])cnc1Cl	8.1	6.99	7.89
CCCCOc1cc(CN2CCN/C2=N\[N+](=O)[O-])cnc1Cl	8.12	7.12	8.12
CCCOc1cc(CN2CCN/C2=N\[N+](=O)[O-])cnc1Cl	6.89	<6.86	6.89
O=[N+]([O-])/N=C1/NCCN1Cc1cnc(Cl)c(F)c1 [5-FLUOROIMIDACLOPRID]	9.91	8.82	9.91
